How the values were obtained:
DLD-1 cancer cells = assay: MTS assay, cell growth inhibition; format: cell-based; details: DLD-1 cells, 72 h incubation; test concentration not given
Experimental: (§1) Cells were maintained at 37° C., 5% CO2 in DMEM media supplemented with 1% fetal bovine serum, penicillin/streptomycin and fungizone (Invitrogen). Cells were seeded into 96-well tissue culture plates at 3000 per well and cultured at 37° C. for 18 hours. Test compounds were dissolved and diluted to 300× in DMSO then diluted 1:40 in DMEM. Cells were incubated with test compounds for 72 hours followed by incubation with tetrazolium compound (3-(4,5-dimethylthiazol-2-yl)-5-(3-carboxymethoxyphenyl)-2-(4-sulfophenyl)-2H-tetrazolium, inner salt; MTS) and the electron coupling reagent, phenazine methosulfate (PMS) for 4 hours. […] The ability of compounds to inhibit cell growth in this assay is correlated with the reduction of dehydrogenase enzyme activity found in metabolically active cells. The measurement of the absorbance of the formazan was assessed using a Victor (Perkin Elmer) microplate reader at 492 nm. The calculated IC50 value is the concentration of the test compound that causes a 50% decrease in the absorbance. Selected compounds have been tested in DLD-1 and MDA-MB-231 cancer cells.

MDA-MB-231 cancer cells = assay: MTS assay, cell growth inhibition; format: cell-based; details: MDA-MB-231 cells, 72 h incubation; test concentration not given
Experimental: as §1

| SMILES | DLD-1, MTS, 72 h (% Inhibition) (DLD-1 cancer cells) [%] | MDA-MB-231, MTS, 72 h (% Inhibition) (MDA-MB-231 cancer cells) [%] |
| --- | --- | --- |
| c1ccc2c(c1)Nc1nc(NCC3CC3)ncc1-c1nnnn1-2 [Compound 9, N-(cyclopropylmethyl)-9H-pyrimido[5,4-c]tetrazolo[1,5-a][1,5]benzodiazepin-11-amine] | 98 | 92 |
| Fc1ccc(CN2c3ccccc3-n3nnnc3-c3cnc(N4CCNCC4)nc32)cc1F [Compound 11, 9-(3,4-difluorobenzyl)-11-piperazin-1-yl-9H-pyrimido[5,4-c]tetrazolo[1,5-a][1,5]benzodiazepine] | 97 | 97 |
| Fc1ccc(CN2c3ccccc3-n3nnnc3-c3cnc(N4CCOCC4)nc32)cc1F [Compound 13, 9-(3,4-difluorobenzyl)-11-morpholin-4-yl-9H-pyrimido[5,4-c]tetrazolo[1,5-a][1,5]benzodiazepine] | 97 | 98 |
| Fc1ccc(CN2c3ccccc3-n3nnnc3-c3cnc(NCc4ccncc4)nc32)cc1F [Compound 20, 9-(3,4-difluorobenzyl)-N-(pyridin-4-ylmethyl)-9H-pyrimido[5,4-c]tetrazolo[1,5-a][1,5]benzodiazepin-11-amine] | 102 | 102 |
| CC(C)(C)OC(=O)NC1CCCN(c2ncc3c(n2)N(Cc2ccc(F)c(F)c2)c2ccccc2-n2nnnc2-3)C1 (stereo not drawn) [Compound 21, tert-butyl {1-[9-(3,4-difluorobenzyl)-9H-pyrimido[5,4-c]tetrazolo[1,5-a][1,5]benzodiazepin-11-yl]piperidin-3-yl}carbamate] | 97 | 97 |
| CC(C)(C)OC(=O)N1CCN(c2ncc3c(n2)N(Cc2ccc(F)c(F)c2)c2ccccc2-n2nnnc2-3)CC1 [Compound 22, tert-butyl 4-[9-(3,4-difluorobenzyl)-9H-pyrimido[5,4-c]tetrazolo[1,5-a][1,5]benzodiazepin-11-yl]piperazine-1-carboxylate] | 95 | 93 |
| COc1cc(CNc2ncc3c(n2)Nc2ccccc2-n2nnnc2-3)cc(OC)c1 [Compound 24, N-(3,5-dimethoxybenzyl)-9H-pyrimido[5,4-c]tetrazolo[1,5-a][1,5]benzodiazepin-11-amine] | 95 | 33 |
| c1ccc(CNc2ncc3c(n2)Nc2ccccc2-n2nnnc2-3)nc1 [Compound 25, N-(pyridin-2-ylmethyl)-9H-pyrimido[5,4-c]tetrazolo[1,5-a][1,5]benzodiazepin-11-amine] | 97 | 79 |
| CC(Nc1ncc2c(n1)Nc1ccccc1-n1nnnc1-2)c1ccc(F)cc1 (stereo not drawn) [Compound 33, N-[1-(4-fluorophenyl)ethyl]-9H-pyrimido[5,4-c]tetrazolo[1,5-a][1,5]benzodiazepin-11-amine] | 82 | 42 |
| c1ccc2c(c1)Nc1nc(N3CCN(c4ccncc4)CC3)ncc1-c1nnnn1-2 [Compound 34, 11-(4-pyridin-4-ylpiperazin-1-yl)-9H-pyrimido[5,4-c]tetrazolo[1,5-a][1,5]benzodiazepine] | 97 | – |
| c1ccc(CCNc2ncc3c(n2)Nc2ccccc2-n2nnnc2-3)cc1 [Compound 35, N-(2-phenylethyl)-9H-pyrimido[5,4-c]tetrazolo[1,5-a][1,5]benzodiazepin-11-amine] | – | 42 |
| Fc1ccc(CNc2ncc3c(n2)Nc2ccccc2-n2nnnc2-3)cc1F [Compound 36, N-(3,4-difluorobenzyl)-9H-pyrimido[5,4-c]tetrazolo[1,5-a][1,5]benzodiazepin-11-amine] | 31 | – |
| c1ccc2c(c1)Nc1nc(NCCN3CCCC3)ncc1-c1nnnn1-2 [Compound 37, N-(2-pyrrolidin-1-ylethyl)-9H-pyrimido[5,4-c]tetrazolo[1,5-a][1,5]benzodiazepin-11-amine] | 95 | – |
| c1ccc2c(c1)Nc1nc(NCCc3ccncc3)ncc1-c1nnnn1-2 [Compound 40, N-(2-pyridin-4-ylethyl)-9H-pyrimido[5,4-c]tetrazolo[1,5-a][1,5]benzodiazepin-11-amine] | 98 | 65 |
| CC(CNc1ncc2c(n1)Nc1ccccc1-n1nnnc1-2)c1ccccc1 (stereo not drawn) [Compound 44, N-(2-phenylpropyl)-9H-pyrimido[5,4-c]tetrazolo[1,5-a][1,5]benzodiazepin-11-amine] | 51 | – |
| Cc1ccc(CNc2ncc3c(n2)Nc2ccccc2-n2nnnc2-3)cc1F [Compound 46, N-(3-fluoro-4-methylbenzyl)-9H-pyrimido[5,4-c]tetrazolo[1,5-a][1,5]benzodiazepin-11-amine] | 69 | – |

| SMILES | DLD-1, MTS, 72 h (% Inhibition) (DLD-1 cancer cells) [%] | MDA-MB-231, MTS, 72 h (% Inhibition) (MDA-MB-231 cancer cells) [%] |
| --- | --- | --- |
| CC(C)CN(C)c1ncc2c(n1)Nc1ccccc1-n1nnnc1-2 [Compound 47, N-methyl-N-(2-methylpropyl)-9H-pyrimido[5,4-c]tetrazolo[1,5-a][1,5]benzodiazepin-11-amine] | 46 | – |
| COc1ccccc1CNc1ncc2c(n1)Nc1ccccc1-n1nnnc1-2 [Compound 50, N-(2-methoxybenzyl)-9H-pyrimido[5,4-c]tetrazolo[1,5-a][1,5]benzodiazepin-11-amine] | 54 | – |
| Fc1ccc(CNc2ncc3c(n2)Nc2ccccc2-n2nnnc2-3)cc1Cl [Compound 55, N-(3-chloro-4-fluorobenzyl)-9H-pyrimido[5,4-c]tetrazolo[1,5-a][1,5]benzodiazepin-11-amine] | 45 | – |
| CN1CCC(Nc2ncc3c(n2)Nc2ccccc2-n2nnnc2-3)CC1 [Compound 66, N-(1-methylpiperidin-4-yl)-9H-pyrimido[5,4-c]tetrazolo[1,5-a][1,5]benzodiazepin-11-amine] | 97 | – |
| COc1ccccc1CCNc1ncc2c(n1)Nc1ccccc1-n1nnnc1-2 [Compound 69, N-[2-(2-methoxyphenyl)ethyl]-9H-pyrimido[5,4-c]tetrazolo[1,5-a][1,5]benzodiazepin-11-amine] | 58 | – |
| Cc1ccc(CNc2ncc3c(n2)Nc2ccccc2-n2nnnc2-3)cc1 [Compound 73, N-(4-methylbenzyl)-9H-pyrimido[5,4-c]tetrazolo[1,5-a][1,5]benzodiazepin-11-amine] | – | 39 |
| Fc1ccc(CCNc2ncc3c(n2)Nc2ccccc2-n2nnnc2-3)cc1 [Compound 74, N-[2-(4-fluorophenyl)ethyl]-9H-pyrimido[5,4-c]tetrazolo[1,5-a][1,5]benzodiazepin-11-amine] | 78 | – |
| Fc1cc(F)cc(CNc2ncc3c(n2)Nc2ccccc2-n2nnnc2-3)c1 [Compound 76, N-(3,5-difluorobenzyl)-9H-pyrimido[5,4-c]tetrazolo[1,5-a][1,5]benzodiazepin-11-amine] | 73 | – |
| c1csc(CNc2ncc3c(n2)Nc2ccccc2-n2nnnc2-3)c1 [Compound 81, N-(thiophen-2-ylmethyl)-9H-pyrimido[5,4-c]tetrazolo[1,5-a][1,5]benzodiazepin-11-amine] | 41 | – |
| Cc1cccc(CNc2ncc3c(n2)Nc2ccccc2-n2nnnc2-3)c1 [Compound 83, N-(3-methylbenzyl)-9H-pyrimido[5,4-c]tetrazolo[1,5-a][1,5]benzodiazepin-11-amine] | 89 | – |
| COc1cccc(CCNc2ncc3c(n2)Nc2ccccc2-n2nnnc2-3)c1 [Compound 84, N-[2-(3-methoxyphenyl)ethyl]-9H-pyrimido[5,4-c]tetrazolo[1,5-a][1,5]benzodiazepin-11-amine] | 42 | – |
| Clc1ccccc1CCNc1ncc2c(n1)Nc1ccccc1-n1nnnc1-2 [Compound 89, N-[2-(2-chlorophenyl)ethyl]-9H-pyrimido[5,4-c]tetrazolo[1,5-a][1,5]benzodiazepin-11-amine] | 31 | – |
| Cc1ccc(CCNc2ncc3c(n2)Nc2ccccc2-n2nnnc2-3)cc1 [Compound 90, N-[2-(4-methylphenyl)ethyl]-9H-pyrimido[5,4-c]tetrazolo[1,5-a][1,5]benzodiazepin-11-amine] | 61 | – |
| CC1CCCCC1Nc1ncc2c(n1)Nc1ccccc1-n1nnnc1-2 (stereo not drawn) [Compound 97, N-(2-methylcyclohexyl)-9H-pyrimido[5,4-c]tetrazolo[1,5-a][1,5]benzodiazepin-11-amine] | 39 | – |
| Fc1ccc(CNc2ncc3c(n2)Nc2ccccc2-n2nnnc2-3)c(Cl)c1 [Compound 102, N-(2-chloro-4-fluorobenzyl)-9H-pyrimido[5,4-c]tetrazolo[1,5-a][1,5]benzodiazepin-11-amine] | 84 | – |
| c1ccc(CC2CCN(c3ncc4c(n3)Nc3ccccc3-n3nnnc3-4)CC2)cc1 [Compound 105, 11-(4-benzylpiperidin-1-yl)-9H-pyrimido[5,4-c]tetrazolo[1,5-a][1,5]benzodiazepine] | – | 56 |

— patent US8470812B2, “Substituted benzo-pyrimido-tetrazolo-diazepine compounds” (ArQule, Inc., priority 2009, dated 2013)
